“And” between values parts separate entries of the source, which are not always exact repeats. Identical values can stand only once.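 Interpolation was linear, between the two tested concentrations surrounding the appropriate level; five concentrations were tested over 48 hours in 96-well plates. GI50 marks 50% less growth. TGI: concentration producing complete growth inhibition.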
Assays:
Experiment in all cases: growth of human tumour cells (NCI), 48 h
[1] = test system: M19-MEL melanoma
[2] = test system: KM20L2 colon
[3] = test system: HOP-18 NSCLC
[4] = test system: NCI/ADR-RES ovarian
[5] = test system: MCF7 breast
[6] = test system: MDA-MB-435
[7] = test system: PC-3 prostate
[8] = test system: MDA-MB-231 breast
[9] = test system: BT-549 breast
[10] = test system: DU-145 prostate

SMILES	TGI [1]	TGI [2]	TGI [3] [µM]	also measured
C[Si](C)(C)[C@@]1([Se]c2ccccc2)CC[C@@H]1C(=O)c1ccccc1	> 100 µM	> 100 µM	–	–
c1ccc(CN(Cc2ccccn2)Cn2cccn2)nc1	> 100 µM	> 100 µM	–	–
COc1cc(C(N)=O)c(OC)c(OC)c1OC	> 100 µM	> 100 µM	–	–
OCC1CC2CC1C1(C2)OCCO1 (stereo not drawn)	> 100 µM	> 100 µM	> 100	–
N#CC(/C(=N\NC(N)=S)C(=O)NC1C2CC3CC(C2)CC1C3)c1ccc(Cl)cc1 (stereo not drawn)	> 100 µM	> 100 µM	> 100	–
CC1=CC(=O)c2[nH]c3ccccc3c2C1=O	–	> 25 µM	7.5	GI50 [3]: 3.35 µM
O=C1CCCc2c(O)ccc(O)c21	> 100 µM	> 100 µM	> 100	–
Nc1nc(Cl)cc(NCCCCCCCCCCNc2cc(Cl)nc(N)n2)n1	> 100 µM	> 100 µM	> 100	–
COc1ccc2c(c1)[n+]([O-])c(-c1ccc(Cl)c(Cl)c1)c(N)[n+]2[O-]	> 100 µM	> 100 µM	> 100	–
N#CCc1nc2c(s1)C(=O)c1ccccc1C2=O	11.4 µM	> 100 µM	28.3	–
NC(=O)Cn1c(=O)[nH]c(=O)c2[nH]cnc21	> 100 µM	> 100 µM	> 100	–
OCC(O)C(OC1OC(CO)C(O)C(O)C1O)c1nn(-c2ccc(F)cc2)c2nc3cc(Cl)c(Cl)cc3cc12 (stereo not drawn)	> 100 µM	> 100 µM	–	–
CN(C)/C(=N/C(=O)Nc1ccccc1)SCc1ccccc1	> 100 µM	–	> 100	–
Cc1ccc(C)c(NC(=O)CCc2n[nH]c(=S)o2)c1	> 100 µM	> 100 µM	> 100	–
COc1ccc(C2CC(C)=Nc3c([nH]c(=S)[nH]c3=O)N2)cc1 (stereo not drawn)	31 µM	31.7 µM	> 100	–
O=C1CCCC2COc3ccc(O)c1c32 (stereo not drawn)	> 100 µM	> 100 µM	–	–
CC(C)S(=O)(=O)n1c(N)nc2ccc(/C(=N/O)c3ccccc3)cc21	> 100 µM	31.8 µM	–	–
O=C(O)c1oc2ccc([N+](=O)[O-])c3c2c1CCC3	> 100 µM	> 100 µM	> 100	–

SMILES	TGI [1]	TGI [2]	TGI [3] [µM]	also measured
Cc1ccc(NC(=O)CCC(=O)C(C#N)c2ccc(Cl)cc2)cc1C (stereo not drawn)	> 100 µM	> 100 µM	> 100	–
S=C1OC2C3C4CC5C3C(O1)C1C5C4C21 (stereo not drawn)	> 100 µM	> 100 µM	> 100	–
C/C(=N\N=C(N)N)c1sc(-c2nc(C)c(/C(C)=N/N=C(N)N)s2)nc1C	> 100 µM	> 100 µM	> 100	–
Cc1cc(C(=O)NCCN(C)C)c2nc3ccccc3nc2c1	13.6 µM	15.1 µM	> 88.8	–
O=C1C=Cc2noc3cccc1c23	11.2 µM	34 µM	33.6	–
C/C(=N\NC(=S)Nc1ccc([N+](=O)[O-])cc1S(=O)(=O)O)c1ccccn1	> 100 µM	67.2 µM	> 100	–
C(=C1/CCCCC([n+]2ccccc2)=N1)/c1ccccc1	> 100 µM	> 100 µM	> 100	–
Cc1ccc(S(=O)(=O)ON=C2CC(c3ccccc3)N(C)C(c3ccccc3)C2)cc1 (stereo not drawn)	53.5 µM and 56.2 µM	53.6 µM and 45.9 µM	–	–
O=[N+]([O-])C(=C(c1ccccc1)c1ccccc1)[N+](=O)[O-]	–	32.1 µM	–	–
CC(C)(C)c1ccc(C(O)(c2ccc(C(C)(C)C)cc2)c2ccc(C(C)(C)C)cc2)cc1	–	–	–	TGI [4]: > 100 µM; TGI [5]: > 100 µM; TGI [6]: > 100 µM; TGI [7]: > 100 µM; TGI [8]: > 100 µM; TGI [9]: > 100 µM; TGI [10]: > 100 µM
C=C1C(=O)C23C(CC(OC(C)=O)C1[C@@H]2OC(C)=O)C1(C)C(OC(C)=O)CCC(C)(C)C1C[C@@H]3OC(C)=O (stereo partly drawn)	3.16 µM	–	–	–
CC12CC(=O)NN=C1c1ccccc1C2 (stereo not drawn)	> 100 µM	> 100 µM	–	–
COc1ccc(/C=C/CO)cc1OC	> 100 µM	> 100 µM	–	–
Cc1cc(Br)cc(C)c1NC(=O)C(=O)C(C(=O)c1ccc(Cl)c(Cl)c1)C1OC(=O)c2ccccc21 (stereo not drawn)	> 100 µM	> 100 µM	–	–
Fc1ccc(-c2c(-c3ccncc3)n(CCN3CCOCC3)c3cccnc23)cc1	–	–	–	GI50 [4]: > 25 µM; TGI [4]: > 25 µM; GI50 [5]: > 25 µM; TGI [5]: > 25 µM; GI50 [6]: > 25 µM; TGI [6]: > 25 µM; GI50 [7]: > 25 µM; TGI [7]: > 25 µM; GI50 [8]: > 25 µM; TGI [8]: > 25 µM; GI50 [9]: > 25 µM; TGI [9]: > 25 µM; GI50 [10]: > 25 µM; TGI [10]: > 25 µM
COc1ccc2c3c([nH]c2c1)[C@H]1C[C@H]2[C@H](C[C@@H](O)[C@H](OC)[C@H]2C(=O)O)CN1CC3	–	–	–	TGI [4]: > 100 µM; TGI [5]: > 100 µM; TGI [6]: > 100 µM; TGI [7]: > 100 µM; TGI [8]: > 100 µM; TGI [9]: > 100 µM; TGI [10]: > 100 µM
Cc1[nH]nc(C(=O)N/N=C/c2cccs2)c1N=NN(C)C	–	–	–	TGI [4]: > 100 µM; TGI [5]: 47.4 µM; TGI [6]: 57 µM; TGI [7]: > 100 µM; TGI [8]: 66.6 µM; TGI [9]: 27.3 µM; TGI [10]: > 100 µM

From PubChem BioAssay (NCI)
